Laboratory results from patent publication US8030443B2, “Squamous cell carcinoma antigen-derived peptide binding to HLA-A24 molecule” (Kurume University, priority 2005, dated 2011).

Tested on: peptide-specific IgG in sera of cancer patients and healthy donors
Test: Measurement of anti-peptide IgG in plasma by LUMINEX multiplexed flow cytometric assay
Type: binding, human
How it was run: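 Plasma diluted 1/100 incubated with peptide-coupled colour-coded beads 2 h at RT, then biotinylated goat anti-human IgG (γ-chain) 1 h and streptavidin-PE 30 min; fluorescence read by multiplexed flow cytometry, >100 counted significant. Specificity checked by three rounds of absorption on corresponding versus irrelevant SCCA peptide.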

RFKVEESYDL (SCCA 286-295 peptide) [SCCA-derived peptide, position 286-295]
Total: healthy donors with significant peptide-reactive IgG / donors tested (10 healthy donors, significant when fluorescence intensity exceeded 100 at 1/100 dilution): 4/10 | Total: cancer patients with significant peptide-reactive IgG / patients tested (71 cancer patients, significant when fluorescence intensity exceeded 100 at 1/100 dilution): 19/71 | Specificity of IgG reactive to the peptide (absorption assay: corresponding vs irrelevant SCCA peptide-coated wells (FIG. 3)): confirmed by absorption assay | Fluorescence intesity (serum of Breast Ca. patient #36, 1:100 dilution): 292 | Fluorescence intesity (serum of Breast Ca. patient #37, 1:100 dilution): 54 | Fluorescence intesity (serum of Breast Ca. patient #38, 1:100 dilution): 95 | Fluorescence intesity (serum of Breast Ca. patient #39, 1:100 dilution): 117 | Fluorescence intesity (serum of Breast Ca. patient #40, 1:100 dilution): 32 | Fluorescence intesity (serum of Breast Ca. patient #41, 1:100 dilution): 321 | Fluorescence intesity (serum of Breast Ca. patient #42, 1:100 dilution): 47 | Fluorescence intesity (serum of Breast Ca. patient #43, 1:100 dilution): 58 | Fluorescence intesity (serum of Breast Ca. patient #44, 1:100 dilution): 155 | Fluorescence intesity (serum of Breast Ca. patient #45, 1:100 dilution): 80 | Fluorescence intesity (serum of Colon Ca. patient #66, 1:100 dilution): 4 | Fluorescence intesity (serum of Colon Ca. patient #67, 1:100 dilution): 35 | Fluorescence intesity (serum of Colon Ca. patient #68, 1:100 dilution): 0 | Fluorescence intesity (serum of Colon Ca. patient #69, 1:100 dilution): 8 | Fluorescence intesity (serum of Colon Ca. patient #70, 1:100 dilution): 16 | Fluorescence intesity (serum of Colon Ca. patient #71, 1:100 dilution): 45 | Fluorescence intesity (serum of Gastric Ca. patient #56, 1:100 dilution): 243 | Fluorescence intesity (serum of Gastric Ca. patient #57, 1:100 dilution): 9 | Fluorescence intesity (serum of Gastric Ca. patient #58, 1:100 dilution): 27 | Fluorescence intesity (serum of Gastric Ca. patient #59, 1:100 dilution): 258 | Fluorescence intesity (serum of Gastric Ca. patient #60, 1:100 dilution): 79 | Fluorescence intesity (serum of Gastric Ca. patient #61, 1:100 dilution): 286 | Fluorescence intesity (serum of Gastric Ca. patient #62, 1:100 dilution): 0 | Fluorescence intesity (serum of Gastric Ca. patient #63, 1:100 dilution): 7 | Fluorescence intesity (serum of Gastric Ca. patient #64, 1:100 dilution): 40 | Fluorescence intesity (serum of Gastric Ca. patient #65, 1:100 dilution): 37 | Fluorescence intesity (serum of Healthy Donor #1, 1:100 dilution): 21 | Fluorescence intesity (serum of Healthy Donor #2, 1:100 dilution): 219 | Fluorescence intesity (serum of Healthy Donor #3, 1:100 dilution): 9 | Fluorescence intesity (serum of Healthy Donor #4, 1:100 dilution): 0 | Fluorescence intesity (serum of Healthy Donor #5, 1:100 dilution): 239 | Fluorescence intesity (serum of Healthy Donor #6, 1:100 dilution): 2 | Fluorescence intesity (serum of Healthy Donor #7, 1:100 dilution): 0 | Fluorescence intesity (serum of Healthy Donor #8, 1:100 dilution): 516 | Fluorescence intesity (serum of Healthy Donor #9, 1:100 dilution): 100 | Fluorescence intesity (serum of Healthy Donor #10, 1:100 dilution): 138 | Fluorescence intesity (serum of Pancreas Ca. patient #46, 1:100 dilution): 0 | Fluorescence intesity (serum of Pancreas Ca. patient #47, 1:100 dilution): 37 | Fluorescence intesity (serum of Pancreas Ca. patient #48, 1:100 dilution): 946 | Fluorescence intesity (serum of Pancreas Ca. patient #49, 1:100 dilution): 97 | Fluorescence intesity (serum of Pancreas Ca. patient #50, 1:100 dilution): 0 | Fluorescence intesity (serum of Pancreas Ca. patient #51, 1:100 dilution): 0 | Fluorescence intesity (serum of Pancreas Ca. patient #52, 1:100 dilution): 275 | Fluorescence intesity (serum of Pancreas Ca. patient #53, 1:100 dilution): 41 | Fluorescence intesity (serum of Pancreas Ca. patient #54, 1:100 dilution): 48 | Fluorescence intesity (serum of Pancreas Ca. patient #55, 1:100 dilution): 24 | Fluorescence intesity (serum of Uterine cervical Ca. patient #1, 1:100 dilution): 75 | Fluorescence intesity (serum of Uterine cervical Ca. patient #2, 1:100 dilution): 0 | Fluorescence intesity (serum of Uterine cervical Ca. patient #3, 1:100 dilution): 21 | Fluorescence intesity (serum of Uterine cervical Ca. patient #4, 1:100 dilution): 229 | Fluorescence intesity (serum of Uterine cervical Ca. patient #5, 1:100 dilution): 58 | Fluorescence intesity (serum of Uterine cervical Ca. patient #6, 1:100 dilution): 869 | Fluorescence intesity (serum of Uterine cervical Ca. patient #7, 1:100 dilution): 15 | Fluorescence intesity (serum of Uterine cervical Ca. patient #8, 1:100 dilution): 30 | Fluorescence intesity (serum of Uterine cervical Ca. patient #9, 1:100 dilution): 93 | Fluorescence intesity (serum of Uterine cervical Ca. patient #10, 1:100 dilution): 14 | Fluorescence intesity (serum of Uterine cervical Ca. patient #11, 1:100 dilution): 23 | Fluorescence intesity (serum of Uterine cervical Ca. patient #12, 1:100 dilution): 44 | Fluorescence intesity (serum of Uterine cervical Ca. patient #13, 1:100 dilution): 29 | Fluorescence intesity (serum of Uterine cervical Ca. patient #14, 1:100 dilution): 19 | Fluorescence intesity (serum of Uterine cervical Ca. patient #15, 1:100 dilution): 129 | Fluorescence intesity (serum of Uterine cervical Ca. patient #16, 1:100 dilution): 147 | Fluorescence intesity (serum of Uterine cervical Ca. patient #17, 1:100 dilution): 63 | Fluorescence intesity (serum of Uterine cervical Ca. patient #18, 1:100 dilution): 48 | Fluorescence intesity (serum of Uterine cervical Ca. patient #19, 1:100 dilution): 62 | Fluorescence intesity (serum of Uterine cervical Ca. patient #20, 1:100 dilution): 102 | Fluorescence intesity (serum of Uterine cervical Ca. patient #21, 1:100 dilution): 21 | Fluorescence intesity (serum of Uterine cervical Ca. patient #22, 1:100 dilution): 25 | Fluorescence intesity (serum of Uterine cervical Ca. patient #23, 1:100 dilution): 60 | Fluorescence intesity (serum of Uterine cervical Ca. patient #24, 1:100 dilution): 1779 | Fluorescence intesity (serum of Uterine cervical Ca. patient #25, 1:100 dilution): 18 | Fluorescence intesity (serum of Uterine cervical Ca. patient #26, 1:100 dilution): 97 | Fluorescence intesity (serum of Uterine cervical Ca. patient #27, 1:100 dilution): 29 | Fluorescence intesity (serum of Uterine cervical Ca. patient #28, 1:100 dilution): 139 | Fluorescence intesity (serum of Uterine cervical Ca. patient #29, 1:100 dilution): 16 | Fluorescence intesity (serum of Uterine cervical Ca. patient #30, 1:100 dilution): 34 | Fluorescence intesity (serum of Uterine cervical Ca. patient #31, 1:100 dilution): 104 | Fluorescence intesity (serum of Uterine cervical Ca. patient #32, 1:100 dilution): 19 | Fluorescence intesity (serum of Uterine cervical Ca. patient #33, 1:100 dilution): 118 | Fluorescence intesity (serum of Uterine cervical Ca. patient #34, 1:100 dilution): 16 | Fluorescence intesity (serum of Uterine cervical Ca. patient #35, 1:100 dilution): 21
